According to PubChem BioAssay AID330 (DTP/NCI, 2004):
Where “and” joins values, the source holds several entries; their conditions need not be identical. Equal values may be shown once. Inconclusive results and toxic doses are left out.

Tested on: P388 leukemia ip, CD2F1 mice, survival T/C
Experiment: NCI In Vivo Anticancer Drug Screen. Data for tumor model P388 Leukemia (intraperitoneal) in CD2F1 (CDF1) mice
Conditions: endpoint: median survival time, higher = longer survival
How it was run: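 Mice carrying the transplanted tumor received test compound or vehicle. Survival was recorded in each group, and the value is the treated-group measurement divided by that of the vehicle-treated control group.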

[1] = dose: 50.0 mg/kg/injection, schedule: Q01DX005 (ip), vehicle: Klucel (hydroxypropylcellulose) (HPC)
[2] = dose: 200.0 mg/kg/injection, schedule: Q01DX005 (ip), vehicle: Klucel (hydroxypropylcellulose) (HPC)
[3] = dose: 50.0 mg/kg/injection, schedule: Q01DX005 (ip), vehicle: saline with Tween-80
[4] = dose: 100.0 mg/kg/injection, schedule: Q01DX005 (ip), vehicle: saline with Tween-80
[5] = dose: 200.0 mg/kg/injection, schedule: Q01DX005 (ip), vehicle: saline with Tween-80

With `COc1cc([C@@H]2c3cc4c(cc3[C@@H](OC3OC5COC(C)OC5C(O)C3O)[C@H]3COC(=O)[C@H]23)OCO4)cc(OC)c1O` (stereo partly specified) the T/C (dose: 1.0 mg/kg/injection, schedule: Q01DX009 (ip), vehicle: saline) was 181 % of control, the T/C (dose: 2.0 mg/kg/injection, schedule: Q01DX009 (ip), vehicle: saline) was 183 % of control and 217 % of control and the T/C (dose: 4.0 mg/kg/injection, schedule: Q01DX001 (ip), vehicle: saline with Tween-80) was 153 % of control. The T/C (dose: 4.0 mg/kg/injection, schedule: Q01DX009 (ip), vehicle: saline) was 241 % of control and 300 % of control, the T/C (dose: 5.0 mg/kg/injection, schedule: Q04DX003 (ip), vehicle: saline with Tween-80) was 122 % of control and the T/C (dose: 6.24 mg/kg/injection, schedule: Q04DX003 (ip), vehicle: water) was 177 % of control. For the same molecule, the T/C (dose: 6.48 mg/kg/injection, schedule: Q04DX003 (ip), vehicle: water) was 178 % of control and 219 % of control, the T/C (dose: 7.78 mg/kg/injection, schedule: Q04DX003 (ip), vehicle: water) was 212 % of control and the T/C (dose: 8.0 mg/kg/injection, schedule: Q01DX001 (ip), vehicle: saline with Tween-80) was 164 % of control. For the same molecule, the T/C (dose: 8.0 mg/kg/injection, schedule: Q01DX001 (ip), vehicle: saline) was 180 % of control, the T/C (dose: 8.0 mg/kg/injection, schedule: Q01DX001 (ip), vehicle: water) was 162 % of control and 168 % of control and the T/C (dose: 8.0 mg/kg/injection, schedule: Q08DX002 (ip), vehicle: saline) was 207 % of control. For the same molecule, the T/C (dose: 10.0 mg/kg/injection, schedule: Q04DX002 (ip), vehicle: suspension in saline) was 162 % of control, the T/C (dose: 10.0 mg/kg/injection, schedule: Q04DX003 (ip), vehicle: saline with Tween-80) was 174 % of control and 190 % of control and the T/C (dose: 10.4 mg/kg/injection, schedule: Q04DX003 (ip), vehicle: clinical formulation) was 247 % of control. For the same molecule, the T/C (dose: 10.4 mg/kg/injection, schedule: Q04DX003 (ip), vehicle: water) was 213 % of control, the T/C (dose: 10.8 mg/kg/injection, schedule: Q04DX002 (ip), vehicle: water) was 243 % of control and the T/C (dose: 10.8 mg/kg/injection, schedule: Q04DX003 (ip), vehicle: water) was 211 % of control and 281 % of control. The T/C (dose: 12.0 mg/kg/injection, schedule: Q04DX003 (ip), vehicle: saline) was 211 % of control, the T/C (dose: 13.0 mg/kg/injection, schedule: Q04DX002 (ip), vehicle: Klucel (hydroxypropylcellulose) (HPC)) was 240 % of control and the T/C (dose: 13.0 mg/kg/injection, schedule: Q04DX003 (ip), vehicle: water) was 234 % of control. For the same molecule, the T/C (dose: 16.0 mg/kg/injection, schedule: Q08DX002 (ip), vehicle: saline) was 240 % of control, the T/C (dose: 17.3 mg/kg/injection, schedule: Q04DX003 (ip), vehicle: clinical formulation) was 276 % of control and the T/C (dose: 17.3 mg/kg/injection, schedule: Q04DX003 (ip), vehicle: water) was 272 % of control. For the same molecule, the T/C (dose: 18.0 mg/kg/injection, schedule: Q04DX002 (ip), vehicle: water) was 264 % of control, the T/C (dose: 18.0 mg/kg/injection, schedule: Q04DX003 (ip), vehicle: Klucel (hydroxypropylcellulose) (HPC)) was 320 % of control and 576 % of control and the T/C (dose: 20.0 mg/kg/injection, schedule: Q04DX002 (ip), vehicle: suspension in saline) was 167 % of control. For the same molecule, the T/C (dose: 20.0 mg/kg/injection, schedule: Q04DX003 (ip), vehicle: saline with Tween-80) was 183 % of control and 190 % of control, the T/C (dose: 21.6 mg/kg/injection, schedule: Q04DX002 (ip), vehicle: Klucel (hydroxypropylcellulose) (HPC)) was 280 % of control and the T/C (dose: 21.6 mg/kg/injection, schedule: Q04DX002 (ip), vehicle: water) was 235 % of control. For the same molecule, the T/C (dose: 21.6 mg/kg/injection, schedule: Q04DX003 (ip), vehicle: water) was 398 % of control, the T/C (dose: 27.0 mg/kg/injection, schedule: Q04DX003 (ip), vehicle: Klucel (hydroxypropylcellulose) (HPC)) was 436 % of control and 567 % of control and the T/C (dose: 28.8 mg/kg/injection, schedule: Q04DX003 (ip), vehicle: clinical formulation) was 419 % of control. The T/C (dose: 28.8 mg/kg/injection, schedule: Q04DX003 (ip), vehicle: water) was 304 % of control, the T/C (dose: 30.0 mg/kg/injection, schedule: Q04DX002 (ip), vehicle: water) was 441 % of control and the T/C (dose: 30.0 mg/kg/injection, schedule: Q04DX003 (ip), vehicle: water) was 333 % of control and 358 % of control. The T/C (dose: 32.0 mg/kg/injection, schedule: Q08DX002 (ip), vehicle: saline) was 285 % of control, the T/C (dose: 36.0 mg/kg/injection, schedule: Q04DX002 (ip), vehicle: Klucel (hydroxypropylcellulose) (HPC)) was 290 % of control and the T/C (dose: 36.0 mg/kg/injection, schedule: Q04DX002 (ip), vehicle: water) was 445 % of control. The T/C (dose: 36.0 mg/kg/injection, schedule: Q04DX003 (ip), vehicle: water) was 416 % of control, the T/C (dose: 40.0 mg/kg/injection, schedule: Q04DX002 (ip), vehicle: suspension in saline) was 218 % of control and the T/C (dose: 40.0 mg/kg/injection, schedule: Q04DX003 (ip), vehicle: Klucel (hydroxypropylcellulose) (HPC)) was 436 % of control and 576 % of control. The T/C (dose: 40.0 mg/kg/injection, schedule: Q04DX003 (ip), vehicle: saline with Tween-80) was 223 % of control and 257 % of control, the T/C (dose: 50.0 mg/kg/injection, schedule: Q04DX002 (ip), vehicle: water) was 372 % of control and the T/C (dose: 60.0 mg/kg/injection, schedule: Q04DX002 (ip), vehicle: water) was 354 % of control. For the same molecule, the T/C (dose: 60.0 mg/kg/injection, schedule: Q04DX003 (ip), vehicle: Klucel (hydroxypropylcellulose) (HPC)) was 576 % of control, the T/C (dose: 60.0 mg/kg/injection, schedule: Q04DX003 (ip), vehicle: water) was 416 % of control and the T/C (dose: 64.0 mg/kg/injection, schedule: Q01DX005 (ip), vehicle: saline) was 105 % of control and 86 % of control and 88 % of control. For the same molecule, the T/C (dose: 64.0 mg/kg/injection, schedule: Q08DX002 (ip), vehicle: saline) was 247 % of control, the T/C (dose: 83.3 mg/kg/injection, schedule: Q04DX002 (ip), vehicle: water) was 441 % of control and the T/C (dose: 96.0 mg/kg/injection, schedule: Q01DX001 (ip), vehicle: water) was 238 % of control and 329 % of control. The T/C (dose: 100.0 mg/kg/injection, schedule: Q04DX002 (ip), vehicle: Klucel (hydroxypropylcellulose) (HPC)) was 89 % of control, the T/C (dose: 100.0 mg/kg/injection, schedule: Q04DX002 (ip), vehicle: water) was 445 % of control and the T/C (dose: 128.0 mg/kg/injection, schedule: Q01DX001 (ip), vehicle: saline with Tween-80) was 77 % of control and 89 % of control. The T/C (dose: 128.0 mg/kg/injection, schedule: Q08DX002 (ip), vehicle: saline) was 98 % of control.
For `C=C1CCN(c2cccc(Cl)c2)C1=O`, the T/C (dose: 4.0 mg/kg/injection, schedule: Q01DX009 (ip), vehicle: saline + alcohol) was 96 % of control, the T/C (dose: 8.0 mg/kg/injection, schedule: Q01DX009 (ip), vehicle: saline + alcohol) was 101 % of control and the T/C (dose: 16.0 mg/kg/injection, schedule: Q01DX009 (ip), vehicle: saline + alcohol) was 100 % of control. The T/C (dose: 32.0 mg/kg/injection, schedule: Q01DX009 (ip), vehicle: saline + alcohol) was 105 % of control and the T/C (dose: 64.0 mg/kg/injection, schedule: Q01DX009 (ip), vehicle: saline + alcohol) was 100 % of control.
With `COc1ccc2cc3[n+](cc2c1O)CCc1cc2c(cc1-3)OCO2` the T/C (dose: 6.25 mg/kg/injection, schedule: Q01DX005 (ip), vehicle: Klucel (hydroxypropylcellulose) (HPC)) was 99 % of control and 106 % of control, the T/C (dose: 12.5 mg/kg/injection, schedule: Q01DX005 (ip), vehicle: Klucel (hydroxypropylcellulose) (HPC)) was 107 % of control and 96 % of control and the T/C (dose: 25.0 mg/kg/injection, schedule: Q01DX005 (ip), vehicle: Klucel (hydroxypropylcellulose) (HPC)) was 101 % of control and 117 % of control. The T/C [1] was 111 % of control and the T/C [2] was 179 % of control.
For `CC1CC(=O)OC2CC(C)(C)CC(=O)C12` (stereo unspecified), the T/C (dose: 100.0 mg/kg/injection, schedule: Q01DX009 (ip), vehicle: saline) was 100 % of control, the T/C (dose: 200.0 mg/kg/injection, schedule: Q01DX009 (ip), vehicle: saline) was 100 % of control and the T/C (dose: 400.0 mg/kg/injection, schedule: Q01DX009 (ip), vehicle: saline) was 109 % of control.
For `CC(=O)Nc1c2ccccc2nc2ccccc12`, the T/C [3] was 95 % of control, the T/C [4] was 91 % of control and the T/C [5] was 94 % of control.
For `CC1(C)CNC(=S)N1C1CCCCC1`, the T/C (dose: 50.0 mg/kg/injection, schedule: Q01DX009 (ip), vehicle: suspension in saline) was 97 % of control, the T/C (dose: 100.0 mg/kg/injection, schedule: Q01DX009 (ip), vehicle: suspension in saline) was 104 % of control and the T/C (dose: 200.0 mg/kg/injection, schedule: Q01DX009 (ip), vehicle: suspension in saline) was 93 % of control.
`CC1CN=C(c2ccc(NC(=O)NCCCNC(=O)Nc3ccc(C4=NCC(C)N4)cc3)cc2)N1` (stereo unspecified) was tested, and the T/C [1] was 153 % of control and 158 % of control.
In the case of `Cc1ccccc1N=Nc1ccc(N=Nc2ccc(N)nc2N)c(C)c1`, the T/C [3] is reported as 104 % of control, the T/C [4] is reported as 110 % of control and the T/C [5] is reported as 99 % of control.
`O=c1c2sc3ccccc3c2ncn1C1CCCCC1` was tested, and the T/C [1] was 98 % of control, the T/C (dose: 100.0 mg/kg/injection, schedule: Q01DX005 (ip), vehicle: Klucel (hydroxypropylcellulose) (HPC)) was 100 % of control and the T/C [2] was 93 % of control.
